Earlier results as cited in patent publication US11701355B2, “Levosimendan for treating pulmonary hypertension with heart failure with preserved ejection fraction (PH-HFpEF)” (Tenax Therapeutics, Inc., priority 2019, dated 2023).

Assays:
patients with HFpEF = details: long term treatment, 216 patients; cited from earlier work
PH-HFpEF patients [1] = details: after 12 weeks, 52 patients; cited from earlier work
HFpEF patients [2] = details: inhaled 3 times a day for 4 weeks; cited from earlier work
patients with PH-HFpEF = details: in vivo; cited from earlier work
PH-HFpEF patients [3] = details: acute; cited from earlier work
[4] = test system: phosphodiesterase-3 (PDE3); details: in vitro; cited from earlier work
[5] = test system: whole cardiomyocytes and isolated contractile apparatus preparations; details: cited from earlier work
PDE4 = details: in vitro; cited from earlier work
[6] = heart failure subjects; cited from earlier work
[7] = test system: patients with left heart disease; details: in vivo; cited from earlier work
HFpEF patients [8] = details: in vivo; cited from earlier work
HFpEF patients [9] = details: in vivo; cited from earlier work; remark: listed apart in the source

Molecule: CCCc1nn(C)c2c(=O)[nH]c(-c3cc(S(=O)(=O)N4CCN(C)CC4)ccc3OCC)nc12 [sildenafil]
- six-minute walk time, clinical status, or quality of life (patients with HFpEF): failed to improve
- mPAP (PH-HFpEF patients [1]): no change

Molecule: O=NO [sodium nitrite]
- primary endpoint of peak oxygen consumption during cardiopulmonary exercise; secondary endpoints (HFpEF patients [2]): unable to demonstrate any improvement

Molecule: COc1ccccc1Oc1c(NS(=O)(=O)c2ccc(C(C)(C)C)cc2)nc(-c2ncccn2)nc1OCCO [bosentan]
- clinical outcomes compared with placebo (patients with PH-HFpEF): worse clinical outcomes
- six minute walk test or echocardiographic evaluation of pulmonary hypertension (patients with PH-HFpEF): no improvements

Molecule: COC(=O)N(C)c1c(N)nc(-c2nn(Cc3ccccc3F)c3ncccc23)nc1N [riociguat]
- TPG or pulmonary vascular resistance (PH-HFpEF patients [3]): no change
- primary outcome, mean pulmonary arterial pressure (PH-HFpEF patients [3]): not achieved

Molecule: CC(=O)Nc1ccc(C2=NNC(=O)C[C@H]2C)cc1 [OR-1896, (R)-N-(4-(4-methyl-6-oxo-1,4,5,6-tetrahydropyridazin-3-yl)phenyl) acetamide]
- potency in the inhibition of PDE3 compared with levosimendan [4]: profoundly less potent
- inotropic effects compared with levosimendan [5]: equipotent to levosimendan
- potency in the inhibition of PDE4 compared with levosimendan (PDE4): profoundly less potent
- half-life [6]: 70 to 80 h

Molecule: CCCNS(=O)(=O)Nc1ncnc(OCCOc2ncc(Br)cn2)c1-c1ccc(Br)cc1 [macitentan]
- hemodynamic parameters (pulmonary vascular resistance, mean pulmonary arterial pressure, pulmonary artery wedge pressure) [7]: no change

Molecule: COC(=O)Nc1c(N)nc(-c2nn(Cc3ccccc3F)c3ncc(F)cc23)nc1N [vericiguat]
- primary endpoints (HFpEF patients [8]): no significant changes

Molecule: sacubitril/valsartan
- reduction in the primary endpoint (HFpEF patients [9]): not statistically significant
